Measurements published in patent US10077446B2, “Glucan-encapsulated siRNA for treating type 2 diabetes mellitus” (The United States of America, as represented by THE …, priority 2013, dated 2018).

How the values were obtained:
[1] = test system: Zucker diabetic fatty (ZDF) rats; assay: 28-day oral JD5037 treatment of 8-week-old diabetic ZDF rats; type: in vivo, rat
Excerpt: Zucker diabetic fatty (ZDF) rats were used to assess the role of endocannabinoids and CB1R in glycemic control and β-cell loss Animal protocols were approved by the Institutional Animal Care and Use Committee of the NIAAA, NIH. Male ZDF rats with their lean controls were obtained from Charles River Laboratories (Wilmington, Mass. 01887, USA). Rats were individually housed and maintained under a 12-h light/dark cycle and fed ad libitum with a standard laboratory diet (STD, NIH-31 rodent diet).
ZDF rats received JD5037 or vehicle (4% DMSO+1% Tween 80 in PBS) by oral gavage according to 2 different protocols. JD5037 was synthesized and its pharmacological properties analyzed as described earlier (Tam, et al. 2012 Cell Metab 16, 167-179). […]
(§1) In the first one, 8-week old diabetic ZDF rats were given 3 mg/kg JD5037 or vehicle for 28 days with lean controls receiving vehicle only. In the second protocol, similar treatment was started in 6-week old pre-diabetic ZDF rats and age-matched lean controls, and treatment continued for 12 weeks until the age of 18 weeks. Body weight and food intake were monitored daily. At the end of treatment in both protocols, rats were sacrificed by decapitation, the brain, liver, kidney, pancreas and combined fat pads were removed, weighed, and snap-frozen in liquid nitrogen or fixed in formalin, and trunk blood was collected for determining endocrine and biochemical parameters. Adiposity index was defined as the combined weight of the epidydimal, retroperitoneal and inguinal fat pads, expressed as % of total body weight. In the second protocol, blood samples were taken weekly to assess the progression of T2DM by measuring blood glucose and monthly to measure insulin and c-peptide levels.
(§2) Blood glucose levels were determined using the Elite glucometer (Bayer, Pittsburgh, Pa.). Serum alanine aminotransferase (ALT), total cholesterol, triglycerides. Plasma insulin was measured using the Ultra Sensitive rat Insulin ELISA kit (Crystal Chem Inc). Hemoglobin A1c was determined using the Rat Hemoglobin A1c (HbA1c) assay kit (Crystal Chem) and c-peptide was quantified by ELISA (C-peptide (rat) ELISA, ALPCO). Serum leptin and adiponectin were determined by ELISA (B-Bridge International). α-amylase, lipase, and uric acid concentrations were determined using commercially available colorimetric kits (BioAssay Systems). TNF-α and IL-1β were determined using TNF-α ELISA Kit (for Lysates) (RayBiotech, Inc.) and IL1β Rat ELISA Kit (Abeam), respectively.
To determine intra-hepatic triglyceride and cholesterol content, liver tissue was extracted as described previously (Folch, et al. 1957 J Biol Chem 226:497-509). After extraction, 0.5 ml of organic phase was transferred to a clean tube containing 1 ml of 2% Triton X-100 in chloroform and dried using nitrogen. The residue was re-solubilized in 1 ml of distilled water and used for triglycerides content using EnzyChrom™ Triglyceride Assay Kit.
Pancreas was fixed in 10% neutral buffered formalin (NBF), embedded in paraffin and sectioned ([…]) onto glass slides. […] For detection, secondary Ab coupled to FITC or PE were used (Table 2). Images were viewed with a Fluoview FV10i confocal microscope system (Olympus). […]

[2] = test system: Zucker diabetic fatty (ZDF) rats; assay: Hyperinsulinemic euglycemic clamp in ZDF rats; type: in vivo, rat
Experimental: Clamps and glucose tracer analyses in conscious, cannulated rats were performed as described: right jugular vein of 3 rats per group was catheterized a week prior to the experiment, and clamps were performed by continuous infusion of insulin at 3 mU/kg/min and co-infusion of 3H-D-glucose to maintain euglycemia. The protocol for radioactive clamps to evaluate glucose fluxes was adapted from Buettner, et al. (Buettner, et al. 2005 J Clin Invest 115:1306-1313). 3H-D-glucose (Perkin Elmer) was first infused at 0.8 μCi/min for one minute and then at 0.04 μCi/min for 2 h prior to insulin infusion, and the tritiated glucose infusion was pursued during the rest of the experiment at the same rate. 10 μl of blood were sampled from the tail 15 and 5 min before starting insulin infusion and 30, 20, 10 minutes before the end of the experiment.
Blood samples were centrifuged in order to obtain serum. Serum was snap frozen on dry ice and, once all the samples were available, 5 μl serum was transferred to 25 μl dionized water and then mixed with 25 μl of 0.1N ZnSO4. Samples were precipitated with addition of 25 μl of 0.1N Ba(OH)2. After centrifugation, the supernatant was dried overnight, resuspended in water, and counted in scintillation liquid. Glucose turnover was calculated as the ratio of tritiated glucose infusion rate over the specific activity of blood glucose.

[3] = test system: Zucker diabetic fatty (ZDF) rats; assay: Glucose-stimulated insulin secretion in intact ZDF rats and isolated islets; type: in vivo, rat
Experimental: Rats were fasted for 12 h, and tail blood was collected to determine basal insulin and c-peptide levels. Rats were then given glucose (3 g/kg) orally by gavage, and, 5 minutes later, tail blood was again collected for determining insulin and c-peptide levels, with the difference over baseline insulin considered as a measure of glucose-induced insulin release, and the comparison with parallel changes in c-peptide levels used to assess the role of insulin production vs. clearance in the observed change in plasma insulin levels.
After 4 days recovery, pancreata from treated animals were inflated via the common bile duct with a solution of LIBERASE™ TL Research Grade (1.18 U/ml, Roche Diagnostics) and digested for 30 min at 37° C. Islets were purified on a discontinuous Ficoll gradient (GE HEALTHCARE) and hand-picked under a stereomicroscope for immediate assessment of […] function by static incubation. Right after isolation, batches of 4 islets were pre-incubated for 2 h in RPMI 1640 containing NaHCO3 (2 g/l), HEPES (25 mM), 10% (v/v) neonatal calf serum (Invitrogen), pH 7.2, and 0.5 g/L glucose at 37° C. in an incubator containing 5% CO2. This was followed by successive 1 h incubations in the presence of 0.5, 1, 1.5, 2, and 3 g/L glucose. Supernatants were collected in each step for insulin quantification (Crystal Chem Inc). […]

[4] = test system: Zucker diabetic fatty (ZDF) rats; assay: 12-week JD5037 treatment of 6-week-old pre-diabetic ZDF rats; type: in vivo, rat; conditions: pre-diabetic 6-week-old ZDF rats, daily JD5037 for 3 months
Experimental: as §1, with “In the second protocol, blood samples were taken weekly to assess the progression of T2DM by measuring blood glucose and monthly to measure insulin and c-peptide levels.” left out
as §2, with “Serum alanine aminotransferase (ALT), total cholesterol, triglycerides.” left out, “TNF-α and IL-1β were determined using TNF-α ELISA Kit (for Lysates) (RayBiotech, Inc.) and IL1β Rat ELISA Kit (Abeam), respectively.” left out

[5] = test system: RAW264.7 macrophages; assay: Proinflammatory signaling in cultured RAW264.7 macrophages; type: cell-based, mouse; conditions: 4 h
Experimental: (§3) Mouse RAW264.7 macrophages (ATCC, Manassas, Va.) were cultured as previously described (Liu, et al. 2003 J Biol Chem 278:45034-45039) and were either treated during 4 hours with various concentrations of AEA (0.1, 0.5, 1, and 10 μM) and/or JD5037 (100 nM) or treated with 30 ng/mL of IL-1β (Abcam Ab9723). Mouse MIN6 insulinoma cells were a gift from NIDDK and were cultured in low glucose DMEM (Gibco 11885) supplemented with 15% FBS (BenchMark 100-006) and 1% antibiotic antimycotic cocktail (Invitrogen 15240-096). Cells were either treated during 4 hours with various concentrations of AEA (0.5, 1 and 5 μM) or treated with 30 ng/mL of IL-1β (Abcam Ab9723).
(§4) For both cell types, medium was collected and immediately frozen in liquid nitrogen. Cells were washed twice in ice-cold sterile PBS before harvesting. EC (endocannabinoid) levels were determined as previously 3, secretion of IL-1β, IL-18, TNF-α and MCP-1 in the medium were determined using ELISA kits (Biosensis BEK-2151-2P, Uscn Life Science & Technology Company E90064Mu, Biosensis BEK-2102-2P, Uscn Life Science & Technology Company E90087Mu, respectively).
(§5) Total mRNA from the liver, pancreas and kidney were extracted with Trizol (Invitrogen), while total mRNA from cells was extracted using RNEASY™ Mini Kit (Qiagen). All extractions were followed by DNase I treatment (Invitrogen). Total mRNA was reverse-transcribed using the ISCRIPT™ cDNA kit (Bio-Rad). Real-time PCR was performed as described previously (Jourdan, et al. 2010 Diabetes 59:926-934) in a 96-well plate using a STEPONEPLUS™ real time PCR system (Applied Biosystems). QUANTITECT™ Primer Assays were used to detect gene expression (Table 3, which lists the primers used for rat and mice (tissue)). Expression of the gene of interest is reported as a relative value comparing it to the geometric average of 18S, L19, L38 and TATA box binding protein expression.

[6] = test system: MIN6 insulinoma cells; assay: Cytokine, apoptotic gene, insulin and CB1R expression in MIN6 insulinoma cells; type: cell-based, mouse
Experimental: as §3, §4
MIN6 cells were treated either with vehicle, IL-1β (30 ng/mL), IL1R antagonist (10 ng/mL) for 3 hours or pre-treated 1 h with IL1R antagonist (10 ng/mL) followed by 3 h incubation with IL-1β (30 ng/mL). […] Blot quantification was performed using the gel analysis options of image J software.
as §5

[7] = ZDF rats, 3 mg/kg JD5037 oral, 28 days
[8] = plasma, ZDF rats, 3 mg/kg/day JD5037 for 28 days, mean ± SEM

## CC(C)[C@H](N/C(=N\S(=O)(=O)c1ccc(Cl)cc1)N1C[C@H](c2ccccc2)C(c2ccc(Cl)cc2)=N1)C(N)=O [JD5037, (S)-2-((S,E)-3-(4-chlorophenyl)-N′-((4-chlorophenyl)sulfonyl)-4-phenyl-4,5-dihydro-1H-pyrazole-1-carboximidamido)-3-methylbutanamide]
[1]; ZDF islets/pancreas, JD5037 28 days
  elevated Nlrp3, IL-1β, IL-18, p65 NFκB, caspase-1 activity, TXNIP and IL-1 receptor mRNA: completely reversed
[1]; ZDF pancreas, JD5037 4 weeks
  ASC mRNA: normalized
  small increase in AIM-2 expression: unaffected
[1]; ZDF pancreas, JD5037 28 days
  expression of the IL-1R antagonist: increased
[1]; [7]
  body weight or adiposity: did not affect
  food intake: small reduction
  hyperglycemia of ZDF rats: completely reversed
  hyperinsulinemia (along with increased C-peptide levels): paradoxically enhanced
  steatosis, associated hepatocellular damage, increased lipogenic gene expression: greatly attenuated
[1]; ZDF rats, 3 mg/kg JD5037 oral, 28 days, FIG. 1c
  fasting blood glucose and HbA1c: normalizes
[1]; ZDF rats, JD5037 4 weeks
  Tunel-positive islet cells: reduced number
  decreased plasma adiponectin and pancreatic expression of adipoR1 and adipoR2: reversed
  insulin mRNA and protein in ZDF islets: normalized
  reduced pancreatic expression of glucokinase (Glck) and Glut2: normalized
[1]; ZDF rats, JD5037 4 weeks, LC/MS/MS
  increased pancreatic anandamide levels: normalized
[1]; ZDF rats, JD5037 28 days
  macrophage infiltration of islets: reduced
[1]; ZDF vs. lean rats, JD5037 4 weeks
  rise in expression of CB1R in islets: reversed
[1]; [8]
  Adiponectin: 5.70 ± 0.07 µg/mL
  Cholesterol: 104.8 ± 3.85 mg/dL
  IL-1β: 7.63 ± 0.78 ng/mL
  Leptin: 9.48 ± 0.31 ng/mL
  TG: 817.6 ± 31.36 mg/dL
  TNF-α: 0.83 ± 0.07 pg/mL
  Uric acid: 2.57 ± 0.04 µg/mL
[2]
  insulin resistance: not significantly affected
[2]; FIG. 1d
  peripheral glucose uptake: slightly improves
[3]; ZDF rats, JD5037-treated
  elevated basal insulin levels: did not affect
[3]; both in vivo and in vitro (isolated islets)
  GSIS (glucose-stimulated insulin secretion): restored
[4]
  hyperglycemia: attenuated and its development delayed
  rapid decline in plasma insulin and c-peptide: largely prevented

## CCCCC/C=C\C/C=C\C/C=C\C/C=C\CCCC(=O)NCCO [anandamide]
[5]; RAW264.7 cells
  concentration at which peak changes in cytokine secretion were observed: 0.5 µM
  secretion of IL-1β, TNF-α, and MCP-1: markedly increased
[5]; RAW264.7 macrophages
  CB2R expression: without affecting
  expression of Nlrp3 and caspase-1: robustly increased
[6]
  maximally effective concentration for reducing insulin gene expression: 0.5 µM
[6]; 0.5 μM anandamide
  pro- and anti-apoptotic gene expression: little or no effect
[6]; 4 h
  levels of IL-1β, TNF-α, and MCP-1 in the medium: did not affect

## IL-1R antagonist: IL-1 receptor antagonist used at 10 ng/mL in MIN6 cells
[6]; IL-1R antagonist 10 ng/mL
  IL-1β-induced reduction of CB1R mRNA and protein: blocked

## IL-1β: interleukin-1β (Abcam Ab9723)
[6]
  maximally effective concentration for reducing insulin gene expression: 30 ng/mL
[6]; 30 ng/mL IL-1β
  CB1R mRNA and protein: drastically reduced
  anti-apoptotic genes Bcl-2 and Bcl-xl: drastically suppressed
  pro-apoptotic genes Bak and Bax: markedly induced
